# Reference: patent US20230365592A1 (Agios Pharmaceuticals, Inc., priority 2022, published 2023)
# Target: T1, human PAH with the R408W mutation (Homo sapiens, UniProt P00439, R408W)
# T1 construct: expressed in transfected cells
# T1 sequence (P00439 1-452 R408W): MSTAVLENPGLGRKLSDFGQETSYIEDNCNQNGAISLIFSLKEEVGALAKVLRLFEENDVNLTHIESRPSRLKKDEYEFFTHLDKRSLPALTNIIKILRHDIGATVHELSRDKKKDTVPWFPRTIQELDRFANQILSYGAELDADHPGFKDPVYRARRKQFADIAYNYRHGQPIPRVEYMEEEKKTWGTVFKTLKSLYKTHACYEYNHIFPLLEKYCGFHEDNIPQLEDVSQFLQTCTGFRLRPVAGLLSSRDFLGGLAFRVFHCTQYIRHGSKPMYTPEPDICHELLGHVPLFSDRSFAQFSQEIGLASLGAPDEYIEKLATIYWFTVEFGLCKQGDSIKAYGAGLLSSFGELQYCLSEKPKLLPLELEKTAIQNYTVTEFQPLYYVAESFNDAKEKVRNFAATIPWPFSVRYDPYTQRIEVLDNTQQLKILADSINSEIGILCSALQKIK
# Assay: Cell Based Phenylalanine Flux Assay;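 also: after compound treatment, cells received sepiapterin plus isotope-labelled Phenylalanine for 4 hours, then labelled Tyrosine in the medium was quantified, 10-point 2-fold dilution series run in duplicate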
# Conditions: A375 cells expressing R408W PAH; 24 hrs with compound, then 20 µM sepiapterin and 800 µM 13C9,15N-Phenylalanine for 4 hours; 13C-Tyrosine by LC-MS; average where tested multiple times; read-out: AC50
row,Structure (SMILES),AC50
1,Cc1nc(C(=O)N2CCc3[nH]cnc3C2c2cc3cccc(C(F)(F)F)n3n2)n(C)n1 (stereo not shown) [listing 1 of 2 here],> 5 µM
2,Cn1ccc(-c2nnc(C(=O)N3CCc4[nH]cnc4C3c3cc4cc(C(F)(F)F)ccn4n3)o2)n1 (stereo not shown) [listing 1 of 2 here],> 5 µM
3,Cc1c(C2c3nc[nH]c3CCN2C(=O)c2nnc(-c3cnn(C)c3C)o2)nn2ccccc12 (stereo not shown),1 to 5 µM
4,COc1cccn2nc(C3c4nc[nH]c4CCN3C(=O)c3nnc(C)o3)cc12 (stereo not shown) [listing 1 of 2 here],> 5 µM
5,O=C(c1nnc(-c2cnn(C(F)(F)F)c2)o1)N1CCc2[nH]cnc2C1c1cc2cccc(F)n2n1 (stereo not shown) [listing 1 of 2 here],> 5 µM
6,Cc1nnc(C(=O)N2CCc3[nH]cnc3C2c2cc3cccc(F)n3n2)o1 (stereo not shown) [listing 1 of 2 here],1 to 5 µM
7,O=C(c1nnc(-c2ncccn2)o1)N1CCc2[nH]cnc2C1c1cc2cccc(C(F)(F)F)n2n1 (stereo not shown) [listing 1 of 2 here],> 5 µM
8,Cc1c(C2c3nc[nH]c3CCN2C(=O)c2nnc(C3CC3)o2)nn2ccccc12 (stereo not shown) [listing 1 of 2 here],1 to 5 µM
9,Cc1cccc2cc(C3c4nc[nH]c4CCN3c3nnc(C4CC4)o3)nn12 (stereo not shown) [listing 1 of 2 here],> 5 µM
10,O=C(c1cnn2cc(N3CCOCC3)ccc12)N1CCc2[nH]cnc2C1c1cc2ccccn2n1 (stereo not shown) [listing 1 of 2 here],> 5 µM
11,O=C(c1cnco1)N1CCc2[nH]cnc2C1c1cc2cc(C(F)(F)F)ccn2n1 (stereo not shown) [listing 1 of 2 here],> 5 µM
12,O=C(c1cnco1)N1CCc2[nH]cnc2C1c1cc2cccc(C(F)(F)F)n2n1 (stereo not shown) [listing 1 of 2 here],> 5 µM
13,Cc1cccc2cc(C3c4nc[nH]c4CCN3C(=O)c3cnco3)nn12 (stereo not shown) [listing 1 of 2 here],1 to 5 µM
14,Cc1nc(C(C)O)oc1C(=O)N1CCc2[nH]cnc2C1c1cc2cccc(Cl)n2n1 (stereo not shown) [listing 1 of 2 here],> 5 µM
15,O=C(CCc1nccs1)N1CCc2[nH]cnc2C1c1cc2ccccn2n1 (stereo not shown),1 to 5 µM
16,Cn1nc(C(F)(F)F)nc1C(=O)N1CCc2[nH]cnc2C1c1cc2cccc(C(F)(F)F)n2n1 (stereo not shown),1 to 5 µM
17,CN1CCN(c2nnc(C(=O)N3CCc4[nH]cnc4C3c3cc4ccccn4n3)o2)CC1 (stereo not shown),> 5 µM
18,Cn1cc(-c2ccc3c(C(=O)N4CCc5[nH]cnc5C4c4cc5ccccn5n4)cnn3c2)cn1 (stereo not shown),1 to 5 µM
19,Cc1nc(C(=O)N2CCc3[nH]cnc3C2c2cc3cccc(C(F)(F)F)n3n2)n(C)n1 (stereo not shown) [listing 2 of 2 here],1 to 5 µM
20,Cn1ccc(-c2nnc(C(=O)N3CCc4[nH]cnc4C3c3cc4cc(C(F)(F)F)ccn4n3)o2)n1 (stereo not shown) [listing 2 of 2 here],1 to 5 µM
21,Cc1c(C2c3nc[nH]c3CCN2C(=O)c2nnc(C(C)(C)F)o2)nn2ccccc12 (stereo not shown),1 to 5 µM
22,O=C(c1nnc(C2CC(F)(F)C2)o1)N1CCc2[nH]cnc2C1c1cc2cccc(C(F)F)n2n1 (stereo not shown),1 to 5 µM
23,O=C(c1nnc(C2CC(F)(F)C2)o1)N1CCc2[nH]cnc2C1c1cc2cccc(C(F)(F)F)n2n1 (stereo not shown),1 to 5 µM
24,Cn1cnc(-c2nnc(C(=O)N3CCc4[nH]cnc4C3c3cc4c(C(F)F)cccn4n3)o2)c1 (stereo not shown),1 to 5 µM

row,Structure (SMILES),AC50
1,CC(C)c1nnc(C(=O)N2CCc3[nH]cnc3C2c2cc3c(C(F)F)cccn3n2)o1 (stereo not shown),> 5 µM
2,Cn1cncc1-c1nnc(C(=O)N2CCc3[nH]cnc3C2c2cc3c(C(F)F)cccn3n2)o1 (stereo not shown),1 to 5 µM
3,COc1cccn2nc(C3c4nc[nH]c4CCN3C(=O)c3nnc(C)o3)cc12 (stereo not shown) [listing 2 of 2 here],1 to 5 µM
4,Cn1cncc1-c1nnc(C(=O)N2CCc3[nH]cnc3C2c2cc3cccc(C(F)F)n3n2)o1 (stereo not shown),1 to 5 µM
5,O=C(c1nnc(C2CC(F)(F)C2)o1)N1CCc2[nH]cnc2C1c1cc2cccc(Cl)n2n1 (stereo not shown),1 to 5 µM
6,O=C(c1nnc(-c2cnn(C(F)(F)F)c2)o1)N1CCc2[nH]cnc2C1c1cc2cccc(F)n2n1 (stereo not shown) [listing 2 of 2 here],1 to 5 µM
7,Cc1nnc(C(=O)N2CCc3[nH]cnc3C2c2cc3cccc(F)n3n2)o1 (stereo not shown) [listing 2 of 2 here],1 to 5 µM
8,Cc1nc(C(C)(C)O)oc1C(=O)N1CCc2[nH]cnc2C1c1cc2cccc(C(F)(F)F)n2n1 (stereo not shown),1 to 5 µM
9,Cc1nc(C(C)(C)O)oc1C(=O)N1CCc2[nH]cnc2C1c1cc2cccc(C)n2n1 (stereo not shown),1 to 5 µM
10,CC(C)(O)c1nnc(C(=O)N2CCc3[nH]cnc3C2c2cc3c(C(F)F)cccn3n2)o1 (stereo not shown),1 to 5 µM
11,CC(C)(O)c1nnc(C(=O)N2CCc3[nH]cnc3C2c2cc3cc(C(F)(F)F)ccn3n2)o1 (stereo not shown),> 5 µM
12,Cc1ccc2cc(C3c4nc[nH]c4CCN3C(=O)c3nnc(C(C)(C)O)o3)nn2c1 (stereo not shown),1 to 5 µM
13,CC(C)(O)c1nnc(C(=O)N2CCc3[nH]cnc3C2c2cc3cccc(C(F)F)n3n2)o1 (stereo not shown),1 to 5 µM
14,CC(C)(O)c1ncc(C(=O)N2CCc3[nH]cnc3C2c2cc3cccc(C(F)(F)F)n3n2)o1 (stereo not shown),1 to 5 µM
15,O=C(c1nnc(-c2ncccn2)o1)N1CCc2[nH]cnc2C1c1cc2cccc(C(F)(F)F)n2n1 (stereo not shown) [listing 2 of 2 here],1 to 5 µM
16,O=C(c1nnc(-c2ncccn2)o1)N1CCc2[nH]cnc2C1c1cc2cccc(F)n2n1 (stereo not shown),1 to 5 µM
17,O=C(c1nnc(-c2ncccn2)o1)N1CCc2[nH]cnc2C1c1cc2ccccn2n1 (stereo not shown),1 to 5 µM
18,O=C(c1nnc(-c2ccccn2)o1)N1CCCc2[nH]cnc2C1c1cc2ccccn2n1 (stereo not shown),> 5 µM
19,CC(C)c1nnc(C(=O)N2CCc3[nH]cnc3C2c2cc3cccc(C(F)(F)F)n3n2)o1 (stereo not shown),1 to 5 µM
20,Cc1c(C2c3nc[nH]c3CCN2C(=O)c2nnc(C3CC3)o2)nn2ccccc12 (stereo not shown) [listing 2 of 2 here],1 to 5 µM
21,Fc1cccc2cc(C3c4nc[nH]c4CCN3c3nnc(C4CC4)o3)nn12 (stereo not shown),1 to 5 µM
22,Cc1cccc2cc(C3c4nc[nH]c4CCN3c3nnc(C4CC4)o3)nn12 (stereo not shown) [listing 2 of 2 here],1 to 5 µM
23,Cc1nnc(C(=O)N2CCc3[nH]cnc3C2c2cc3cc(C(F)(F)F)ccn3n2)o1 (stereo not shown),1 to 5 µM
24,Cc1ccc2cc(C3c4nc[nH]c4CCN3C(=O)c3nnc(C)o3)nn2c1 (stereo not shown),1 to 5 µM

row,Structure (SMILES),AC50
1,Cc1nnc(N2CCc3[nH]cnc3C2c2cc3ccccn3n2)o1 (stereo not shown),1 to 5 µM
2,Cc1c(C2c3nc[nH]c3CCN2C(=O)c2nnc(C(C)(C)C)o2)nn2ccccc12 (stereo not shown),1 to 5 µM
3,CC(C)(C)c1nnc(C(=O)N2CCc3[nH]cnc3C2c2cc3cc(C(F)(F)F)ccn3n2)o1 (stereo not shown),1 to 5 µM
4,Cn1nc(C(F)F)nc1C(=O)N1CCc2[nH]cnc2C1c1cc2cccc(C(F)(F)F)n2n1 (stereo not shown),1 to 5 µM
5,O=C(c1cnn2cc(N3CCOCC3)ccc12)N1CCc2[nH]cnc2C1c1cc2ccccn2n1 (stereo not shown) [listing 2 of 2 here],1 to 5 µM
6,Cc1cccc2cc(C3c4nc[nH]c4CCN3C(=O)c3cnn4ccccc34)nn12 (stereo not shown),1 to 5 µM
7,O=C(c1nnc(N2CCC(F)CC2)o1)N1CCc2[nH]cnc2C1c1cc2ccccn2n1 (stereo not shown),1 to 5 µM
8,Cc1c(C2c3nc[nH]c3CCN2C(=O)c2cnco2)nn2ccccc12 (stereo not shown),1 to 5 µM
9,O=C(c1cnco1)N1CCc2[nH]cnc2C1c1cc2cc(C(F)(F)F)ccn2n1 (stereo not shown) [listing 2 of 2 here],1 to 5 µM
10,O=C(c1cnco1)N1CCc2[nH]cnc2C1c1cc2cc(F)ccn2n1 (stereo not shown),1 to 5 µM
11,O=C(c1cnco1)N1CCc2[nH]cnc2C1c1cc2ccc(C(F)(F)F)cn2n1 (stereo not shown),1 to 5 µM
12,O=C(c1cnco1)N1CCc2[nH]cnc2C1c1cc2cccc(C(F)(F)F)n2n1 (stereo not shown) [listing 2 of 2 here],1 to 5 µM
13,Cc1nc(C(=O)N2CCc3[nH]cnc3C2c2cc3cccc(Cl)n3n2)n(C)n1 (stereo not shown),> 5 µM
14,O=C(c1cnco1)N1CCc2[nH]cnc2C1c1cc2cccc(Cl)n2n1 (stereo not shown),1 to 5 µM
15,Cn1nc(C2CC2)nc1C(=O)N1CCc2[nH]cnc2C1c1cc2cccc(Cl)n2n1 (stereo not shown),1 to 5 µM
16,Cc1cccc2cc(C3c4nc[nH]c4CCN3C(=O)c3cnco3)nn12 (stereo not shown) [listing 2 of 2 here],1 to 5 µM
17,O=C(C1CC1(F)F)N1CCc2[nH]cnc2C1c1cc2ccccn2n1 (stereo not shown),1 to 5 µM
18,O=C(c1cnn2ccccc12)N1CCc2[nH]cnc2C1c1cc2cccc(C(F)(F)F)n2n1 (stereo not shown),1 to 5 µM
19,Cc1nc(C(C)O)oc1C(=O)N1CCc2[nH]cnc2C1c1cc2cccc(C(F)(F)F)n2n1 (stereo not shown),1 to 5 µM
20,Cc1nc(C(C)O)oc1C(=O)N1CCc2[nH]cnc2C1c1cc2cccc(C)n2n1 (stereo not shown),1 to 5 µM
21,Cc1nc(C(C)O)oc1C(=O)N1CCc2[nH]cnc2C1c1cc2cccc(Cl)n2n1 (stereo not shown) [listing 2 of 2 here],1 to 5 µM
22,CC(O)c1nnc(C(=O)N2CCc3[nH]cnc3C2c2cc3ccccn3n2)o1 (stereo not shown),1 to 5 µM
